Results published in ChEMBL document CHEMBL2424516, “Facile synthesis of novel quinoline derivatives as anticancer agents” (2013).
Active and inactive are the calls of the source. The rule behind the calls is not given here.

Experiments:
Escherichia coli = test: Induction of Escherichia coli DNA cleavage at 100 ug after 2 hrs by agarose gel electrophoresis
MCF7 = test: Cytotoxicity against human MCF7 cells by SRB assay; type: functional; settings: for CC50: read-out: LC50 (the source's name)
HeLa = test: Cytotoxicity against human HeLa cells by SRB assay; type: functional

Compound | Activity (Escherichia coli) | GI50 (MCF7) [µM] | TGI (MCF7) [µM] | CC50 (MCF7) [µM] | GI50 (HeLa) [µM] | LC50 (concentration killing 50% of cells) (HeLa) [µM] | TGI (HeLa) [µM]
COc1cccc2cc(C3SC(NC(C)=O)=NN3C(C)=O)c3nnnn3c12 (centres undefined) | Active | > 100 | > 100 | > 100 | > 100 | > 100 | > 100
COc1cc2cc(C3SC(NC(C)=O)=NN3C(C)=O)c3nnnn3c2cc1OC (centres undefined) | Active | > 100 | > 100 | > 100 | > 100 | > 100 | > 100
COc1cccc2c1C(=O)c1c(O)c3c(c(O)c1C2=O)C[C@@](O)(C(=O)CO)C[C@@H]3O[C@H]1C[C@H](N)[C@H](O)[C@H](C)O1 [DOXORUBICIN] | – | < 0.1 | > 0.1 | > 100 | < 0.1 | – | > 0.1
CC(=O)NC1=NN(C(C)=O)C(c2cc3cc(C)ccc3n3nnnc23)S1 (centres undefined) | Active | > 100 | > 100 | > 100 | 81.3 | > 100 | > 100
CC(=O)NC1=NN(C(C)=O)C(c2cc3cc(Br)ccc3n3nnnc23)S1 (centres undefined) | Active | > 100 | > 100 | > 100 | < 0.1 | > 100 | > 100
CC(=O)NC1=NN(C(C)=O)C(c2cc3cc(Cl)ccc3n3nnnc23)S1 (centres undefined) | Active | > 100 | > 100 | > 100 | < 0.1 | > 100 | > 100
CC(=O)NC1=NN(C(C)=O)C(c2cc3ccc(C)cc3n3nnnc23)S1 (centres undefined) | – | 98.9 | > 100 | > 100 | 83.3 | > 100 | > 100
COc1ccc2cc(C3SC(NC(C)=O)=NN3C(C)=O)c3nnnn3c2c1 (centres undefined) | Active | > 100 | > 100 | > 100 | > 100 | > 100 | > 100
COc1ccc2c(c1)cc(C1SC(NC(C)=O)=NN1C(C)=O)c1nnnn12 (centres undefined) | Active | > 100 | > 100 | > 100 | > 100 | > 100 | > 100
CC(=O)NC1=NN(C(C)=O)C(c2cc3ccccc3n3nnnc23)S1 (centres undefined) | Active | > 100 | > 100 | > 100 | > 100 | > 100 | > 100
CC(=O)NC1=NN(C(C)=O)C(c2cc3cccc(C)c3n3nnnc23)S1 (centres undefined) | Active | 95.3 | > 100 | > 100 | 85.1 | > 100 | > 100
